Experiments:
STOML3 = target: T1, STOML3 (Mus musculus, UniProt Q6PE84); assay: BiFC assay of STOML3 self-association in HEK-293 cells; format: cell-based; details: for STOML3 self-association based on the slope of YFP signal development: primary screen of about 35000 small molecules, each at 10 M (so in the source)
T1 construct: expressed in transfected cells; host or cells: HEK-293
T1 sequence (Q6PE84 1-287): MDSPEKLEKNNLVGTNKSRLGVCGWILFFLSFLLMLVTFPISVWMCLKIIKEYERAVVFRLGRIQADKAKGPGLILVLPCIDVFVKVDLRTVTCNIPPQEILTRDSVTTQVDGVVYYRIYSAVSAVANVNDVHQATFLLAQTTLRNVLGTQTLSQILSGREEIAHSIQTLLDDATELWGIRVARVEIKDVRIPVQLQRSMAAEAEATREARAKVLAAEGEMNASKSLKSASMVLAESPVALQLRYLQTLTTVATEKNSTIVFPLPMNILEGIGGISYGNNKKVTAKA
Procedure: HEK-293 cells were cultured in T-150 flasks to approximately 70% confluence; cells were co-transfected with plasmids encoding STOML3-VC and STOML3-VN using Fugene-HD, as per manufacturer's instructions. The transfection reaction was allowed to proceed for 8 h before cells were recovered from the dishes, resuspended in DMEM media containing 25 mM HEPES and lacking phenol red. Cells were plated in PLL-coated 384 well plates using an automated dispenser (EL406 Microplate Washer Dispenser). Plates already contained compound from the ChemBioNet compound library1. The final assay volume was 40 μl cells with 10 μM of compound. […] Development of the YFP fluorescence signal was monitored overnight (15 h), with readings taken every 3 h (ex: 515±8 nm, em: 535±8 nm). In between readings cells were maintained at 37° C., 5% CO2, and 95% humidity. The overnight monitoring of signal development was performed on a Freedom Evo workstation equipped with a robotic arm for plate transport and a Safirell plate reader for fluorescence measurement (Tecan Group Ltd, Männedorf, Switzerland), and an integrated STX44-ICSA automated plate incubator (Liconic AG, Mauren, Liechtenstein) for plate storage in between measurements. Experiments were repeated with 20 plates each day until the entire compound library had been screened and data was normalized to in-plate controls.
Compounds of interest were selected from the slope of YFP-signal vs time. Each well was compared to the average slope of in-plate positive controls (normalized percent activity), and compared to the mean and standard deviation of all samples on a plate (without the controls), giving a Z score as a measure of statistical significance. Initially, compounds were re-screened in triplicate to confirm whether or not the noted differences were repeatable; compounds with confirmed activity were selected for further analysis.
In mammals STOML3 belongs to a family of five structurally conserved membrane proteins, including stomatin, STOML1, STOML2, and podocin^10,12-16, all of which self-associate via their stomatin-domain (FIG. 8a)^10. Self-association of stomatin-domain proteins can be monitored in HEK293 cells using Bimolecular Fluorescence Complementation (BiFC) whereby N- and C-terminal halves of the YFP molecule are tagged to the prey and bait protein STOML3^2,17 (FIG. 1a). Irreversible association of the YFP fragments produces fluorescence that increases linearly over time (FIG. 1b).

STOML3-FLAG = target: T2, STOML3-FLAG (Mus musculus, UniProt Q6PE84); assay: dSTORM imaging of STOML3-FLAG cluster size at the plasma membrane of N2A cells; format: cell-based; details: pre-incubation three hours, 20 μM, vs vehicle
T2 construct: expressed in transfected cells; host or cells: N2A (Neuro2A)
Procedure: N2A cells were cultured on EHS-Laminin coated precision coverglass, thickness 0.17, then transfected with a plasmid encoding STOML3-FLAG. After overnight incubation, cells were treated for 3 hours with 20 μM compound, or DMSO as a control. Cells were then fixed (15 min, 4% PFA), permeabilized (0.05% TritonX 100, 5 min) and blocked (phosphate buffered saline (PBS) containing 10% fetal goat serum (FGS), 37° C., 1 hr). Cell were labeled with mouse anti-FLAG antibody (M2 clone, 1:100 in PBS containing 10% FGS). The secondary antibody was an Alexa647-conjugated, goat anti-mouse antibody (1:100 in PBS plus 10% FGS, 1 h, 37° C.). After staining, the samples were fixed again. […]
For analysis of STOML3 domain size, all reconstructed images were blinded and then from each imaged cell 100 individual dots were cropped (size: 20×20 pixels). A 2D-Gaussian fit was calculated using the Igor software (WaveMetrics, USA). […] After domain sizes had been determined for each cell, images were unblinded and then normalized against the average domain size for control cells prepared and imaged on the same day.
We next determined whether OB-1 and OB-2 modulation of STOML3 oligomerization state influences clustering of the protein in the plasma membrane. […]

Row | normalized slope of BiFC signal development (STOML3; 2 μm and 20 μm, wild type STOML3 as bait and prey) | BiFC signal (STOML3; lower OB-1 concentration, 2 M (so in the source)) | STOML3 self-association based on the slope of YFP signal development (STOML3) | STOML3-FLAG cluster size (STOML3-FLAG) | SMILES
1 | significantly reduced | inhibited | most effective inhibitory compounds | significantly reduced | CCOC(=O)c1c(-c2ccccc2)oc2ccc(Oc3c([N+](=O)[O-])ncn3C)cc12 [OB-1, Ethyl 5-((1-methyl-4-nitro-1H-imidazol-5-yl)oxy)-2-phenylbenzofuran-3-carboxylate]
2 |  |  | most effective inhibitory compounds | significantly reduced | Cc1ccnc(NC(=O)CSc2nnc3c4ccccc4n(Cc4ccccc4)c3n2)c1 [OB-2]

From patent US11384071B2, “Inhibitors of mechanotransduction to treat pain and modulate touch perception” (Max-Delbrück-Centrum für Molekulare Medizin in der …, priority 2016, dated 2022)
